Measurements reported in the NIST ThermoML archive (doi:10.1016/j.jct.2010.04.013).

Assay: mn = molality of the nth substance listed, in mol/kg
Details: 101 kPa, Liquid; for mass density: Vibrating tube method; for speed of sound: Pulse-echo method

CO [methanol] + [Mg+2].[O-][Cl+3]([O-])([O-])[O-].[O-][Cl+3]([O-])([O-])[O-]
m2 = 0
Details	mass density [kg/m3]
283.15 K	800.542
288.15 K	795.864
293.15 K	791.17
298.15 K	786.46
303.15 K	781.735
308.15 K	776.985
313.15 K	772.206

[Mg+2].[O-][Cl+3]([O-])([O-])[O-].[O-][Cl+3]([O-])([O-])[O-] [magnesium perchlorate] + C[S+](C)[O-]
Details	mass density, 293.15 K [kg/m3]	mass density, 298.15 K [kg/m3]	mass density, 303.15 K [kg/m3]	mass density, 313.15 K [kg/m3]	mass density, 323.15 K [kg/m3]	mass density, 333.15 K [kg/m3]	speed of sound, 298.15 K [m/s]
m1 = 0.02171	1103.82	1098.81	1093.8	1083.79	1073.79	1063.78	–
m1 = 0.03119	1105.4	1100.4	1095.39	1085.4	1075.41	1065.42	1486.8
m1 = 0.04163	1107.14	1102.15	1097.16	1087.18	1077.2	1067.23	1487.7
m1 = 0.05295	1109.04	1104.04	1099.06	1089.1	1079.15	1069.19	1488.7
m1 = 0.06473	1111.01	1106.03	1101.06	1091.11	1081.18	1071.25	1489.7
m1 = 0.08226	1113.97	1109	1104.04	1094.12	1084.21	1074.31	1491.1
m1 = 0.1041	1117.67	1112.71	1107.76	1097.88	1088	1078.12	1493
m1 = 0.1277	1121.69	1116.74	1111.81	1101.96	1092.12	1082.29	1494.8
m1 = 0.1481	1125.19	1120.27	1115.34	1105.52	1095.7	1085.9	1496.7
m1 = 0.1734	1129.53	1124.62	1119.72	1109.94	1100.17	1090.39	1498.8
m1 = 0.1952	1133.31	1128.4	1123.52	1113.77	1104.03	1094.3	1500.8

[Ba+2].[O-][Cl+3]([O-])([O-])[O-].[O-][Cl+3]([O-])([O-])[O-] [barium perchlorate] + C[S+](C)[O-]
Details	mass density, 293.15 K [kg/m3]	mass density, 298.15 K [kg/m3]	mass density, 303.15 K [kg/m3]	mass density, 313.15 K [kg/m3]	mass density, 323.15 K [kg/m3]	mass density, 333.15 K [kg/m3]	speed of sound, 298.15 K [m/s]
m1 = 0.03102	1108.57	1103.55	1098.53	1088.51	1078.49	1068.47	–
m1 = 0.04247	1111.68	1106.66	1101.64	1091.63	1081.62	1071.61	1485.2
m1 = 0.05458	1114.98	1109.97	1104.95	1094.94	1084.94	1074.94	1485.5
m1 = 0.06931	1119.03	1114.02	1109	1099	1089.01	1079.01	1486
m1 = 0.08432	1123.18	1118.17	1113.16	1103.17	1093.18	1083.2	1486.3
m1 = 0.1063	1129.31	1124.31	1119.3	1109.32	1099.34	1089.37	1486.8
m1 = 0.1359	1137.67	1132.66	1127.67	1117.69	1107.73	1097.78	1487.8
m1 = 0.1651	1146.06	1141.06	1136.07	1126.1	1116.15	1106.21	1488.5
m1 = 0.191	1153.55	1148.55	1143.57	1133.61	1123.67	1113.74	1489.3
m1 = 0.222	1162.7	1157.71	1152.72	1142.77	1132.84	1122.92	1490.4
m1 = 0.25	1171.03	1166.04	1161.06	1151.11	1141.21	1131.31	1491.5

C[S+](C)[O-] [dimethyl sulfoxide] + [O-][Cl+3]([O-])([O-])[O-].[O-][Cl+3]([O-])([O-])[O-].[Sr+2]
m2 = 0
Details	mass density [kg/m3]
293.15 K	1100.22
298.15 K	1095.18
303.15 K	1090.17
313.15 K	1080.12
323.15 K	1070.08
333.15 K	1060.03

CO [methanol] + [O-][Cl+3]([O-])([O-])[O-].[O-][Cl+3]([O-])([O-])[O-].[Sr+2]
m2 = 0
Details	mass density [kg/m3]
283.15 K	800.547
288.15 K	795.856
293.15 K	791.16
298.15 K	786.447
303.15 K	781.721
308.15 K	776.973
313.15 K	772.194
